Test results reported in US12006330B2, “Substituted macrocyclic compounds and related methods of treatment” (Alkermes, Inc., priority 2020, dated 2024).

Columns and labels:
Type in all cases: in vitro ADME
[1] = Hepatocytes stability assay (human hepatocytes); conditions: both sexes, human, cryopreserved hepatocytes, cryopreserved human hepatocytes (pool of 50 mixed gender); 1 μM test compound; 1×10^6 cell/mL; 37 degrees C; read-out: CLint (μL/min/million cells)
Protocol: (§1) In vitro metabolic stability was assessed using cryopreserved hepatocytes from male Sprague Dawley rats and a pool of 50 mixed gender humans (BioIVT, Baltimore, MD). The incubation mixtures were prepared by mixing 250 μL of pre-warmed KHB (Krebs-Henseleit buffer) containing 2×10^6 cell/mL of hepatocytes with 250 μL of pre-warmed KHB buffer containing 2 μM of test compounds in a 48-well plate, giving a final concentration of 1 μM test compound (0.1% DMSO) and 1×10^6 cell/mL of hepatocytes. The reaction mixture was incubated at 37 degrees C. A 50 μL aliquot of incubation mixture was taken at time points (0, 15, 30, 60, 120 and 240 minutes) and transferred into a 96-well plate containing 300 μL ice-cold acetonitrile (containing 30 ng/mL of labetalol and 10 ng/mL of Naltrexone-d3 as internal standards) and immediately placed in ice to terminate the reaction. Samples were centrifuged, and supernatants were transferred into 96-well plates for liquid chromatography with tandem mass spectrometry (LC-MS/MS) analysis to monitor the depletion of the test compound.
(§2) Data was calculated as percent remaining by assuming zero-minute time point peak area ratio (analyte/IS) as 100% and dividing remaining time point peak area ratios by zero-minute time point peak area ratio. Data were fitted to a first-order decay model to determine half-life. From a plot of log (ln) peak area against time, the slope of the line was determined. Subsequently, half-life (T1/2) and intrinsic clearance (CLint) were calculated using the equations below: Elimination rate constant (k)=(−slope) Half-life (T1/2) min=0.693/k Intrinsic Clearance (CLint) (mL/min/million cells)=(V×0.693)/T1/2 V=incubation volume mL/number of cells The in vitro T1/2 was converted to in vitro intrinsic clearance (CLint,hep) in units of mL/min/kg using the formula shown below:
(§3) [formula] The in vitro intrinsic clearance (CLint,hep) was scaled to in vivo hepatic clearance (CL,hep) using the following equation which was adapted from a well-stirred model.
(§4) [formula] where Q is the liver blood flow and fu is the fraction unbound (assumed to be unity in this case). All parameters used in the calculation are shown below (Table 4).
(§5) The extraction ratio (ER) was calculated by dividing the hepatic clearance of a compound to the liver blood flow. The data reported in Table 5 were obtained according to the human hepatocytes stability assay described above.

human hepatocytes = experiment: Hepatocytes stability assay (human hepatocytes); conditions: human hepatocytes; scaled hepatic clearance divided by liver blood flow (well-stirred model, fu assumed unity)
Protocol: as §1, §2, §3, §4, §5

MDR1 = experiment: MDCK-MDR1 permeability assay; conditions: dog, MDCK-MDR1, MDCK-MDR1 cells; for efflux ratio at 2 h, 3 μM: Papp B→A divided by Papp A→B, read-out: Efflux ratio (ER); for Papp A→B at 2 h, 3 μM: test compound 3 μM, 2 hours at 37 degrees C, apical to basolateral
Protocol: The bidirectional permeability (Apical to Basal and Basal to Apical directions) of test compounds in MDCK-MIDR1 cells were evaluated using MDCK-MIDR1 cells seeded in Solvo PreadyPort™ MDCK 96-well plate. Once the plate was received from ReadyCell (Barcelona, Spain), it was treated as per PreadyPort™ user's manual.
For the Apical to Basolateral (A→B) permeability, 80 μL of test compound (3 μM) co-dosed with LY (Lucifer Yellow) (100 μM) in HBSS (Hank's Balanced Salt Solution) assay buffer was added to the donor side (A) while 250 μL of HBSS buffer was added to the receiver side (B). For the Basolateral to Apical (B→A) permeability, 255 μL of test compound (3 μM) in HBSS assay buffer was added to the donor side (B) while 75 μL of HBSS buffer containing LY (100 μM) was added to the receiver side (A).
The plate was placed in an incubator set at 37 degrees C. After 10 minutes of pre-warming, 5 μL aliquot was taken from donor compartment and set aside as the dosing solution. The MDCK-MDR1 incubation plate was placed back into the incubator for 2 hours of incubation at 37 degrees C. After 2 hours of incubation, 25 μL and 5 μL aliquots were removed from the receiver and donor sides, respectively. To the 5 μL aliquots taken from the donor sides (before and after a 2-hour incubation) were diluted with 20 μL of the HBSS buffer. All samples were mixed with 150 μL with acetonitrile containing internal standard (IS) and 200 μL water, and analyzed by LC-MS/MS.
The apparent permeability (Papp) was calculated using the following formula: Papp=dQ/dt×1/A×C0 where: • dQ/dt: amount of translocated material over incubation time (nmol/s) • A: area of insert (0.14 cm^2 for PreadyPort™ MDR1-96) • C0: initial concentration of product applied in apical (A→B) or basal (B→A) compartment (nmol/mL)
The efflux ratio (ER) was measured by dividing the Papp (basolateral to apical direction) by Papp (apical to basolateral direction). It is a general measure of the involvement of active processes. An ER>2 is considered positive for active transport.
Percent recovery was measured using the following equation:
[formula] where: • VR: Volume of the receiver compartment (mL) • VD: Volume of the donor compartment (mL) • CN: Concentration of dosing solution (μM) collected after 10 minutes of incubation • CR^final: Receiver concentration at the end of the incubation (μM) • CD^final: Donor concentration at the end of the incubation (μM)
The data reported in Table 3 were obtained according to the MDCK-MDR1 permeability assay described above.

hepatocyte CLint at 1 μM [1] | Extraction Ratio (ER) (human hepatocytes) | efflux ratio at 2 h, 3 μM (MDR1) | Papp A→B at 2 h, 3 μM (MDR1) | SMILES
58 µL/min/1e6 cells | 0.90 | 1.8 | 5.6 ×10⁻⁶ cm/s | CCS(=O)(=O)N[C@H]1CCCN2CCOc3ccccc3[C@H]3CC[C@H](CC3)OCC12 (stereo in doubt) [Compound 53]
62 µL/min/1e6 cells | 0.90 | 5.4 | 1.67 ×10⁻⁶ cm/s | O=S(=O)(CC1CC1)N[C@H]1CCCN2CCOc3ccccc3[C@H]3CC[C@H](CC3)OCC12 (stereo in doubt) [Compound 59]
59 µL/min/1e6 cells | 0.90 | 2.4 | 3.9 ×10⁻⁶ cm/s | CC(C)S(=O)(=O)N[C@H]1CCCN2CCOc3ccccc3[C@H]3CC[C@H](CC3)OCC12 (stereo in doubt) [Compound 52]
11 µL/min/1e6 cells | 0.63 | 51 | 0.79 ×10⁻⁶ cm/s | O=C1COc2ccccc2[C@H]2CC[C@H](CC2)OCC2[C@@H](NS(=O)(=O)C3COC3)CCCN12 (stereo in doubt) [Compound 80]
61 µL/min/1e6 cells | 0.90 | 0.76 | 9.6 ×10⁻⁶ cm/s | Cc1ccc2c(c1)OCCN1CCC[C@H](NS(C)(=O)=O)C1CO[C@H]1CC[C@@H]2CC1 (stereo in doubt) [Compound 50]
46 µL/min/1e6 cells | 0.87 | 7.8 | 2 ×10⁻⁶ cm/s | CC(C)(C)S(=O)(=O)N[C@H]1CCCN2C(=O)COc3ccccc3[C@H]3CC[C@H](CC3)OCC12 (stereo in doubt) [Compound 44]
5.8 µL/min/1e6 cells | 0.46 | 19 | 0.83 ×10⁻⁶ cm/s | Cc1ccc2c(c1)C1CCC(CC1)OC[C@H]1[C@@H](NS(=O)(=O)C(C)C)CCCN1C(=O)CO2 (stereo in doubt) [Compound 18]
58 µL/min/1e6 cells | 0.90 | 0.73 | 8.6 ×10⁻⁶ cm/s | Cc1cccc2c1OCCN1CCC[C@H](NS(C)(=O)=O)C1CO[C@H]1CC[C@@H]2CC1 (stereo in doubt) [Compound 49]
46 µL/min/1e6 cells | 0.87 | 3.8 | 5.7 ×10⁻⁶ cm/s | Cc1cccc2c1[C@H]1CC[C@H](CC1)OCC1[C@@H](NS(=O)(=O)C(C)C)CCN1C(=O)CO2 (stereo in doubt) [Compound 79]
3.9 µL/min/1e6 cells | 0.37 | > 100 | 0.32 ×10⁻⁶ cm/s | Cc1c(Cl)ccc2c1[C@H]1CC[C@H](CC1)OCC1[C@@H](NS(C)(=O)=O)CCCN1C(=O)CO2 (stereo in doubt) [Compound 31]
11 µL/min/1e6 cells | 0.61 | 65 | 0.3 ×10⁻⁶ cm/s | Cc1c(Cl)ccc2c1[C@H]1CC[C@H](CC1)OCC1[C@@H](NS(=O)(=O)C3CC3)CCCN1C(=O)CO2 (stereo in doubt) [Compound 75]
41 µL/min/1e6 cells | 0.86 | 60 | 0.56 ×10⁻⁶ cm/s | O=C1COc2ccccc2[C@H]2CC[C@H](CC2)OCC2[C@@H](NS(=O)(=O)CC3CC3)CCCN12 (stereo in doubt) [Compound 48]
7.2 µL/min/1e6 cells | 0.52 | 74 | 0.41 ×10⁻⁶ cm/s | Cc1ccc2c(c1C)[C@H]1CC[C@H](CC1)OCC1[C@@H](NS(C)(=O)=O)CCCN1C(=O)CO2 (stereo in doubt) [Compound 78]
55 µL/min/1e6 cells | 0.89 | 10 | 0.96 ×10⁻⁶ cm/s | O=C1COc2ccccc2[C@H]2CC[C@H](CC2)OCC2[C@@H](NS(=O)(=O)CC3CCC3)CCCN12 (stereo in doubt) [Compound 43]
2.5 µL/min/1e6 cells | 0.27 | 63 | < 0.036 ×10⁻⁶ cm/s | O=C1COc2nnccc2[C@H]2CC[C@H](CC2)OCC2[C@@H](NS(=O)(=O)C3CC3)CCCN12 (stereo in doubt) [Compound 67]
2.6 µL/min/1e6 cells | 0.28 | 46 | 0.85 ×10⁻⁶ cm/s | Cc1ncnc2c1[C@H]1CC[C@H](CC1)OCC1[C@@H](NS(=O)(=O)C3CC3)CCN1C(=O)CO2 (stereo in doubt) [Compound 83]
4.3 µL/min/1e6 cells | 0.39 | > 100 | 0.19 ×10⁻⁶ cm/s | CS(=O)(=O)N[C@H]1CCCN2C(=O)COc3cc(C#N)ccc3[C@H]3CC[C@H](CC3)OCC12 (stereo in doubt) [Compound 47]
< 1.9 µL/min/1e6 cells | <0.22 | 59 | 0.58 ×10⁻⁶ cm/s | Cc1ncnc2c1[C@H]1CC[C@H](CC1)OCC1[C@@H](NS(C)(=O)=O)CCN1C(=O)CO2 (stereo in doubt) [Compound 82]
16 µL/min/1e6 cells | 0.70 | 81 | 0.35 ×10⁻⁶ cm/s | CC(C)S(=O)(=O)N[C@H]1CCCN2C(=O)COc3ncc(Cl)cc3[C@H]3CC[C@H](CC3)OCC12 (stereo in doubt) [Compound 35]
69 µL/min/1e6 cells | 0.91 | 31 | 0.23 ×10⁻⁶ cm/s | O=S(=O)(CC1CCC1)N[C@H]1CCCN2CCOc3ccccc3[C@H]3CC[C@H](CC3)OCC12 (stereo in doubt) [Compound 55]
6.4 µL/min/1e6 cells | 0.49 | > 100 | < 0.18 ×10⁻⁶ cm/s | Cc1ccc2c(c1)OCC(=O)N1CCC[C@H](NS(C)(=O)=O)C1CO[C@H]1CC[C@@H]2CC1 (stereo in doubt) [Compound 40]
21 µL/min/1e6 cells | 0.76 | > 100 | 0.092 ×10⁻⁶ cm/s | Cc1ccnc2c1[C@H]1CC[C@H](CC1)OCC1[C@@H](NS(=O)(=O)C3CC3)CCCN1C(=O)CO2 (stereo in doubt) [Compound 62]
41 µL/min/1e6 cells | 0.86 | 59 | 0.55 ×10⁻⁶ cm/s | O=C1COc2ccccc2[C@H]2CC[C@H](CC2)OCC2[C@@H](NS(=O)(=O)C3CCCC3)CCCN12 (stereo in doubt) [Compound 33]
